In patent publication US10562857B2 (AFASCI, Inc., priority 2015, dated 2020):

biological target: T1, Cav3.2 channel (Homo sapiens, UniProt O95180); experiment: Whole-cell patch clamp of T-type Cav3.2 channel expressed in HEK293 cells; type: cell-based; settings: not given
T1 construct: expressed in transfected cells; host or cells: HEK-293, tetracycline inducible expression system (Invitrogen)
Method: Cav3.1, Cav3.2 or Cav3.3 channels were expressed in human embryonic kidney (HEK)-293 cells using a tetracycline inducible expression system (Invitrogen). Cells were maintained in 25 cm^2 tissue culture flasks at 37° C., 5% CO2, and 100% relative humidity in D-MEM/F12 (Dulbecco's Modified Eagle Medium/Nutrient Mixture F-12; Gibco) supplemented with fetal bovine serum (FBS, 10% v/v), sodium pyruvate (0.5 mM, Gibco), penicillin-streptomycin (100 U/mL, 100 μg/mL) and Geneticin® Selective antibiotic (G418; 0.5 mg/mL). Cells were detached from the flask base using a non-enzymatic cell dissociation solution (Cellstripper, Corning), removed and re-seeded on to poly-D-lysine coated glass coverslips in 35 mm dishes. Cells in dishes were further supplemented with G418 at a final concentration of 1 mg/mL and after 24 hours, expression of Cav3.2 was induced with 1 μg/mL tetracycline. The medium for the HEK-293 cells was composed of D-MEM/F-12 (Dulbecco's Modified Eagle Medium/Nutrient Mixture F-12; Gibco, #11330-032) and 15 mM HEPES buffer, with L-glutamine and pyridoxine hydrochloride. It was supplemented with FBS (Fetal Bovine Serum), P/S (Penicillin/Streptomycin) (Gibco, #15140-122), and sodium pyruvate 100 mM (Gibco, #11360-070). At least 24 hours before the assay, expression of the alpha-2-delta-1 and beta2a subunits of the calcium channel were induced with 1 ug/mL tetracycline.
Whole-cell voltage clamp recordings were performed on rat or mouse DRG neurons within 2 days after acutely dissociation or cultured HEK293 cells expressing T-type channels (encoded by Cav3.1, Cav3.2 or Cav3.3 channels). All experiments were performed at room temperature (around 21° C.). Whole-cell currents were recorded using a MultiClamp 700B amplifier and analyzed offline with pCLAMP10.4 software (Molecular Devices, LLC, Sunnyvale Calif., USA). To record calcium currents in DRG and HEK293 cells, the external solution was composed (in mM) of 115 choline-Cl, 30 TEA-Cl, 2 CaCl2, 10 glucose and 10 HEPES (pH 7.3-7.4 adjusted with TEA-OH; osmolality verified as 295 mOsm/kg). The internal solution was composed (in mM) of 125 CsCl, 10 HEPES (acid), 10 EGTA (ethylene glycol tetraacetic acid), 1 CaCl2, 1 MgCl2, 4 MgATP and 0.3 MgGTP (pH 7.3-7.4 adjusted with CsOH; osmolality verified as 295 mOsm/kg). Since the sodium ions were absent in the external solution, tetrodoctoxin was not needed. Calcium currents were recorded at a holding potential of −100 mV and then depolarized to −30 mV for 100 ms to activate either Cav3.1, Cav3.2, or Cav3.3 expressed in HEK cells. An interpulse interval of 10 seconds allowed the channel recovery from inactivation, and achieved stable current recordings. To record sodium (Na^+) currents in DRG neurons, the external solution used the modified Krebs solution specified above. The internal solution was composed (in mM) of 120 CsF, 10 HEPES, 11 EGTA, 1 CaCl2, 1 MgCl2, 10 TEA-Cl, 4 MgATP and 0.3 MgGTP (pH 7.3-7.4 adjusted with CsOH). […] To record potassium currents in DRG neurons, the external solution used the modified Kreb's solution specified above. The internal solution was composed (in mM) of 65 KCl, 80 KF, 5 KOH, 10 EGTA, 2 MgATP (pH 7.3-7.4 adjusted with KOH). Recording electrodes were fabricated using a P-87 puller (Sutter Instrument Co., Novato, Calif., USA). The tip of resistance was 3-4 MQ in bath and the series resistance was less than 10 MΩ after whole cell configuration. All reagents were purchased from Sigma unless specified otherwise. Test compounds were usually applied via a rapid solution exchange system with 8 fine polyplastic tubings (100 μm, OD) glued in a holder in parallel and located closely to the recorded cells. […]

T1 sequence (O95180 whole entry): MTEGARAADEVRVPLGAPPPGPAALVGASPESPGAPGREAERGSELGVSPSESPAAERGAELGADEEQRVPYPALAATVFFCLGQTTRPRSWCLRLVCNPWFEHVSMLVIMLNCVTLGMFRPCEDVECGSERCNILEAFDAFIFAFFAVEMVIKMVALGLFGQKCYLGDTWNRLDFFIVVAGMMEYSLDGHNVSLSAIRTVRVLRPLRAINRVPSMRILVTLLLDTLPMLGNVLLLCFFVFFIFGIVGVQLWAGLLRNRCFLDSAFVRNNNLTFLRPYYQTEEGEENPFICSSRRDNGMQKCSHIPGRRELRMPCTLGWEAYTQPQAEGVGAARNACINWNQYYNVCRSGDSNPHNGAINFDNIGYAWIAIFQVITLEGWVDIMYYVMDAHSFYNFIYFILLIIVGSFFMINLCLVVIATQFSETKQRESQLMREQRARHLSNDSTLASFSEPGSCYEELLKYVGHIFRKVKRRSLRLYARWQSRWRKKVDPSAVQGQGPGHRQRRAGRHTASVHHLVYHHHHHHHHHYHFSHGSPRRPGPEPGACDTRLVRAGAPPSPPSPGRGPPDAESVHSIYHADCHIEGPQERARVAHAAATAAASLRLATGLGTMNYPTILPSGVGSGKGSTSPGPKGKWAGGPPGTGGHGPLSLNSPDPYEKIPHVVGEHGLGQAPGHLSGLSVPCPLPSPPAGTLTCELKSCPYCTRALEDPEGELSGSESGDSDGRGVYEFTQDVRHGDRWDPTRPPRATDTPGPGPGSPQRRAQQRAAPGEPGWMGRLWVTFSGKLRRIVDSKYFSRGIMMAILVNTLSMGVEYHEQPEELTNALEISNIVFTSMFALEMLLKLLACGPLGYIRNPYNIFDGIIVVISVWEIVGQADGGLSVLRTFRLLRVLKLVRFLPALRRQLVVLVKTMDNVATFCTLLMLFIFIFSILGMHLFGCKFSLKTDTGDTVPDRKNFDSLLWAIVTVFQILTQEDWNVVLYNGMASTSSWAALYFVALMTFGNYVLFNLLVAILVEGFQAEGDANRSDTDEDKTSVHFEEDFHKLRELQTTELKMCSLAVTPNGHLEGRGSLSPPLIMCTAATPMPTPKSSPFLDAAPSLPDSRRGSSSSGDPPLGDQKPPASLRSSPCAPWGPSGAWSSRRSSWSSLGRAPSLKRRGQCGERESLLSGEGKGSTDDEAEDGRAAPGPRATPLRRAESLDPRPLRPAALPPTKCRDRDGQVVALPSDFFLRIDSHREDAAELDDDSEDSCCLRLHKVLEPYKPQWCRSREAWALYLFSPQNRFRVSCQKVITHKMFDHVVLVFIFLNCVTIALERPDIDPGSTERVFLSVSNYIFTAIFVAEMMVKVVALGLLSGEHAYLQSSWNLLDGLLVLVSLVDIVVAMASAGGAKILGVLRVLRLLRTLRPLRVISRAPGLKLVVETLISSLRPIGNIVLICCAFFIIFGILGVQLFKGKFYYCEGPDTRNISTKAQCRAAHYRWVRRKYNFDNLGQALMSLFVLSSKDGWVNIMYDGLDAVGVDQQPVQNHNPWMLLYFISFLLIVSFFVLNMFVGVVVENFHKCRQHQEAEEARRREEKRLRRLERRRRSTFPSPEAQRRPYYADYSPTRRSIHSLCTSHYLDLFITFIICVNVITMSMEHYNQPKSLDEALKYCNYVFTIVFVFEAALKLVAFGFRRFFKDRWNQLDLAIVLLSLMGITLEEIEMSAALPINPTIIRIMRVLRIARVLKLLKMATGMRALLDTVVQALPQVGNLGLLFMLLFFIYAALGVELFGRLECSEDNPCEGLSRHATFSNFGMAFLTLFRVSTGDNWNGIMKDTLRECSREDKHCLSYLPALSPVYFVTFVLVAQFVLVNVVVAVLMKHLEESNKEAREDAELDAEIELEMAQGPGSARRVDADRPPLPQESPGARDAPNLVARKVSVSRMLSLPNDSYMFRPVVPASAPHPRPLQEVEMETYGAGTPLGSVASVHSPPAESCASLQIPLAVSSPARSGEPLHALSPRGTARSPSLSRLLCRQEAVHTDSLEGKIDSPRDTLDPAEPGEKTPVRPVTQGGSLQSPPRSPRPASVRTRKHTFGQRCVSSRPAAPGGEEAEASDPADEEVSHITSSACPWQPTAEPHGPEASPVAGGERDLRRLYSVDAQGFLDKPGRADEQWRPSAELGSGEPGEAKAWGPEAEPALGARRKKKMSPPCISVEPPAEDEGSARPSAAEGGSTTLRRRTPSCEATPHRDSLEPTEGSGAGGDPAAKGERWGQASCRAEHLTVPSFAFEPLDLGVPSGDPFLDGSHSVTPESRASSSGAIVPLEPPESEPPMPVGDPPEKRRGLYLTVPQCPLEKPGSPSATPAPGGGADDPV

| SMILES | IC50 [nM] |
| --- | --- |
| O=C(N[C@@H]1CCC12CCN(CCc1ccccc1)CC2)c1ccccc1 [Example 111] | 1500 |

same assay, conditions: HEK293; Table 1 primary screening; 1 μM

| SMILES | inhibition at 1 µM [%] |
| --- | --- |
| O=C(Nc1cc(Cl)cc(Cl)c1)C1CC12CCN(CCc1ccccc1)CC2 (stereo not shown) [Example 92, N-(3,5-Dichlorophenyl)-6-phenethyl-6-azaspiro[2.5]octane-1-carboxamide] | 35 |
| Clc1cc(Cl)cc(NCC2CC23CCN(CCc2ccccc2)CC3)c1 (stereo not shown) [Example 95] | 67 |
| O=C(NCC1CCN(CCC2CC2)CC1)c1ccc(Cl)s1 [Example 97, 5-Chloro-N-((1-(2-cyclopropylethyl)piperidin-4-yl)methyl)thiophene-2-carboxamide] | 33 |
| CC(C)(C)NC(=O)CN1CCC(CNC(=O)CCc2cccc(Cl)c2)CC1 [Example 99, N-((1-(2-(tert-Butylamino)-2-oxoethyl)piperidin-4-yl)methyl)-3-(3-chlorophenyl)propanamide] | 75 |
| O=C(CN1CCC(CNC(=O)c2ccccc2)CC1)NC1CCCCC1 [Example 100, N-((1-(2-(Cyclohexylamino)-2-oxoethyl)piperidin-4-yl)methyl)benzamide] | 26 |
| O=C(CN1CCC(CNC(=O)c2ccccc2)CC1)Nc1ccccc1 [Example 101, N-((1-(2-Oxo-2-(phenylamino)ethyl)piperidin-4-yl)methyl)benzamide] | 44 |
| O=C(CN1CCC(CNC(=O)c2ccc(O)cc2)CC1)Nc1ccccc1 [Example 102, 4-Hydroxy-N-((1-(2-oxo-2-(phenylamino)ethyl)piperidin-4-yl)methyl)benzamide] | 47 |
| COc1cccc(C(=O)NCC2(C)CCN(CC(=O)NC(C)(C)C)CC2)c1 [Example 108, N-((1-(2-(tert-butylamino)-2-oxoethyl)-4-methylpiperidin-4-yl)methyl)-3-methoxybenzamide] | 53 |
| O=C(CN1CCC(CO)(CNC(=O)c2ccccc2F)CC1)Nc1ccccc1 [Example 110, 2-fluoro-N-((4-(hydroxymethyl)-1-(2-oxo-2-(phenylamino)ethyl)piperidin-4-yl)methyl)benzamide] | 44 |
| O=C(N[C@@H]1CCC12CCN(CCc1ccccc1)CC2)c1ccccc1 [Example 111] | 30 |
| O=C(N[C@H]1CCC12CCN(CCc1ccccc1)CC2)c1ccccc1 [Example 112] | 24 |
| O=C(Nc1nnc(-c2ccc(Cl)s2)o1)c1ccccc1 [Example 117, N-(5-(5-Chlorothiophen-2-yl)-1,3,4-oxadiazol-2-yl)benzamide] | 24 |
| O=C(CCc1ccc(Cl)c(Cl)c1)Nc1nnc(-c2ccc(Cl)s2)o1 [Example 120, N-(5-(5-Chlorothiophen-2-yl)-1,3,4-oxadiazol-2-yl)-3-(3,4-dichlorophenyl)propanamide] | 9.2 |
| O=C(Cc1cccc(Cl)c1)Nc1nnc(-c2ccc(Cl)s2)o1 [Example 121, 2-(3-Chlorophenyl)-N-(5-(5-chlorothiophen-2-yl)-1,3,4-oxadiazol-2-yl)acetamide] | 75 |
| Cc1cc(C(=O)Nc2nnc(-c3ccccc3)o2)no1 [Example 122, 5-Methyl-N-(5-phenyl-1,3,4-oxadiazol-2-yl)isoxazole-3-carboxamide] | 14.9 |
| O=C(Nc1nnc(-c2ccccc2)o1)c1cnccn1 [Example 124, N-(5-Phenyl-1,3,4-oxadiazol-2-yl)pyrazine-2-carboxamide] | 7.1 |
| Cc1cc(C(=O)Nc2nnc(-c3ccccc3F)o2)no1 [Example 126, N-(5-(2-Fluorophenyl)-1,3,4-oxadiazol-2-yl)-5-methylisoxazole-3-carboxamide] | 5.9 |
| O=C(Nc1nnc(-c2ccccc2F)o1)c1cnccn1 [Example 127, N-(5-(2-Fluorophenyl)-1,3,4-oxadiazol-2-yl)pyrazine-2-carboxamide] | 8.5 |

same assay, conditions: HEK293; Table 1 primary screening; 3 μM as indicated in cell; read-out: % inhibition at 3 μM

| SMILES | inhibition at 3 µM [%] |
| --- | --- |
| O=C(CCc1cccc(Cl)c1)Nc1nnc(-c2ccccc2)o1 [Example 119, 3-(3-Chlorophenyl)-N-(5-phenyl-1,3,4-oxadiazol-2-yl)propanamide] | 5 |

same assay, conditions: Table 1; tested at at least 4 concentrations; read-out: IC50

| SMILES | IC50 [nM] |
| --- | --- |
| CC(C)(C)CCN1CCC2(CC1)CC2N(CC1CC1)C(=O)c1cc(Cl)cc(Cl)c1 (stereo not shown) [Example 55, 3,5-Dichloro-N-(cyclopropylmethyl)-N-(6-(3,3-dimethylbutyl)-6-azaspiro[2.5]octan-1-yl)benzamide] | 70 |
| CC(C)(C)C(O)CN1CCC2(CC1)CC2NC(=O)c1cc(Cl)cc(Cl)c1 (stereo not shown) [Example 58, 3,5-Dichloro-N-(6-(2-hydroxy-3,3-dimethylbutyl)-6-azaspiro[2.5]octan-1-yl)benzamide] | 220 |
| O=C(NC1CC12CCN(CC(O)c1ccc(C(F)(F)F)cc1)CC2)c1cc(Cl)cc(Cl)c1 (stereo not shown) [Example 59, 3,5-Dichloro-N-(6-(2-hydroxy-2-(4-(trifluoromethyl)phenyl)ethyl)-6-azaspiro[2.5]octan-1-yl)benzamide] | 70 |
| CC(C)(C)CCN1CCC2(CCC2NC(=O)c2cc(Cl)cc(Cl)c2)CC1 (stereo not shown) [Example 69, 3,5-Dichloro-N-(7-(3,3-dimethylbutyl)-7-azaspiro[3.5]nonan-1-yl)benzamide] | 280 |
| CC(C)(C)NC(=O)CN1CCC2(CCC2NC(=O)c2cc(Cl)cc(Cl)c2)CC1 (stereo not shown) [Example 71, N-(7-(2-(tert-Butylamino)-2-oxoethyl)-7-azaspiro[3.5]nonan-1-yl)-3,5-dichlorobenzamide] | 200 |
| CC(C)(C)NC(=O)CN1CCC2(CC1)CC2CNC(=O)c1cc(Cl)cc(Cl)c1 (stereo not shown) [Example 87, N-((6-(2-(tert-Butylamino)-2-oxoethyl)-6-azaspiro[2.5]octan-1-yl)methyl)-3,5-dichlorobenzamide] | 690 |
| CC(C)(C)CCN1CCC2(CC1)CC2CNC(=O)c1cc(Cl)cc(Cl)c1 (stereo not shown) [Example 88, 3,5-Dichloro-N-((6-(3,3-dimethylbutyl)-6-azaspiro[2.5]octan-1-yl)methyl)benzamide] | 90 |
| O=C(NCC1CC12CCN(CCc1ccccc1)CC2)c1cc(Cl)cc(Cl)c1 (stereo not shown) [Example 89, 3,5-Dichloro-N-((6-phenethyl-6-azaspiro[2.5]octan-1-yl)methyl)benzamide] | 90 |
| CC(C)(C)NC(=O)CN1CCC2(CC1)CC2C(=O)Nc1cc(Cl)cc(Cl)c1 (stereo not shown) [Example 90] | 130 |
| CC(C)(C)CCN1CCC2(CC1)CC2C(=O)Nc1cc(Cl)cc(Cl)c1 (stereo not shown) [Example 91, N-(3,5-Dichlorophenyl)-6-(3,3-dimethylbutyl)-6-azaspiro[2.5]octane-1-carboxamide] | 60 |
| CC(C)(C)NC(=O)CN1CCC2(CC1)CC2CNc1cc(Cl)cc(Cl)c1 (stereo not shown) [Example 93] | 100 |
| CC(C)(C)CCN1CCC2(CC1)CC2CNc1cc(Cl)cc(Cl)c1 (stereo not shown) [Example 94] | 130 |
| CC(C)(C)CCN1CCC2(CC1)CC2NC(=O)c1cc(C(F)(F)F)ccc1Cl (stereo not shown) [Example 142, 2-Chloro-N-(6-(3,3-dimethylbutyl)-6-azaspiro[2.5]octan-1-yl)-5-(trifluoromethyl)benzamide] | 90 |
| CC(C)(C)NC(=O)CN1CCC2(CC1)CC2NC(=O)C12CC3CC(CC(C3)C1)C2 (stereo not shown) [Example 143, N-(6-(2-(tert-Butylamino)-2-oxoethyl)-6-azaspiro[2.5]octan-1-yl)adamantane-1-carboxamide] | 290 |
